“Also recorded” adds a separate entry of the source.
How the values were obtained:
[1] = system: EGFR; test: mRNA level of EGFR on EPCs; assay type: cell-based; settings: EPCs treated with LXW7
Experimental: FIG. 15 presents graphs of mRNA levels of VEGFR-2 (A) and EGFR (B) on EPCs after treating with different concentrations of LXW7 for 48 h. *P<0.05 vs. Control, #P<0.05 vs. 25 nM (n=10 per group).

[2] = system: HCAECs; test: on-bead whole cell binding assay, HCAECs; assay type: cell-based, human
Source text: Human coronary artery endothelial cells (HCAECs) were purchased from ATCC. Human cardiac microvascular endothelial cells (HMVECs) were purchased from Lonza. THP-1 monocytes were obtained from Dr. Pamela Lein (University of California, Davis). The myeloid leukemia K562 cells that have been transfected with human integrin αvβ3 gene (αvβ3-K562 cells) were provided by Dr. Yoshikazu Takada and the K562 cells transfected with human integrin αIIbβ3 gene (αIIb3-K562 cells) were provided Dr. Jennifer Cochran (Stanford University)
HECFCs, HCAECs, HMVECs and THP-1 monocytes were cultured in their respective growth medium as described in Example 1. For cell bead-binding assay, 6×10^5 HECFCs, HCAECs, HMVECs or THP-1 monocytes in 2 mL of their respective culture medium were added to an ultra-low attachment 35-mm petri dish (Corning Incorporated) followed by resin beads (Lam et al. (1991) Nature 354:82). The dishes were incubated in a shaking incubator at 37° C., 5% CO2 for various time points at 40 rpm. For platelet bead-binding assay, the platelets isolated as described in Example 1 were added to an ultra-low attachment 35-mm petri dish and incubated with the resin beads in the shaking incubator as described for the cell-bead binding assy. Phase contrast images were taken at different time points using an Olympus IX81 microscope.
Three integrin-targeting ligands—LXY30 (α3β1), LLP2A (α4β1) and LXW7 (αvβ3)—were tested for their binding activities to EPCs and ECs. […] LXY30 only bound to ECs, not to EPCs. LLP2A only bound to EPCs, not to ECs. LXW7 bound well to both EPCs and ECs.

[3] = system: platelets; test: flow cytometry ligand-cell binding, platelets; settings: biotinylated ligand 1 μM
Experimental: FIG. 10 presents flow cytometry data from an assay of binding affinity of LXW7 and GRGD (SEQ ID NO: 1) to different cell types. Tests included EPCs/ECs from different sources, including HECFCs (A), HCAECs (B), HMVECs (C), and THP-1 monocytes (D), Platelets (E), as well as K562 cells engineered to highly express αvβ3 (αvβ3-K562, F), and αIIbβ3 (αIIbβ3-K562, G). Cells were incubated with the LXW7-bio, GRGD-bio (SEQ ID NO: 1), or D-Biotin peptide and subsequently incubated with streptavidin-phycoerythrin. Flow cytometry analysis was performed to determine the binding affinity of the ligands. Samples treated with D-biotin were used as negative controls.
LXW7-bio (1 μM) was incubated with 3×10^5 HECFCs, HCAECs, HMVECs, αvβ3-K562 and αIIbβ3-K562 cells and THP-1 monocytes and 1×10^8 platelets in binding buffer (HEPES containing 10% FBS) on ice for 30 minutes. The samples were washed three times with DPBS containing 1% FBS and incubated with 2 μg/ml of streptavidin-phycoerythrin on ice for 30 minutes and then washed with DPBS. Samples were analyzed on a BD Fortessa LSR Cell Analyzer and further data analysis and gating were performed using FlowJo software (Treestar, Inc.).

[4] = system: THP-1 monocytes; test: attachment assay on ligand treated culture surfaces, THP-1 monocytes; assay type: cell-based; settings: 16 hours
Source text: Ligands LXW7, LXY30, and LLP2A were synthesized as in U.S. Pat. No. 9,073,974. Biotinylated LXW7 (LXW7-bio) and biotinylated GRGD (GRGD-bio) (SEQ ID NO: 1) were synthesized using established solid phase peptide synthesis protocols (Xiao et al. (2010) Mol Cancer Therapeutics 9:2714). Peptide-bio was designed to have biotin attached to the side chain of Lys, with two hydrophilic linkers between peptide and Lys (biotin). To modify culture surface with ligands, target culture wells in a 24-well plate were coated with 500 μL of 20 μg/mL Avidin (Thermo Fisher Scientific), and incubated for 1 hour at 37° C. Avidin coated wells were rinsed three times with DPBS and were treated with 500 μL molar equivalents (2 μM) of D-biotin (Thermo Fisher Scientific), LXW7-bio, or GRGD-bio (SEQ ID NO: 1). After 1 hour, the wells were washed three times with DPBS and blocked with 1% bovine serum albumin (BSA; Thermo Fisher Scientific) for 1 hour. After the wells were rinsed three times with DPBS, for cell attachment assay, 5×10^4 HCAECs and THP-1 monocytes suspended in the respective maintenance medium were added to the wells and incubated for 10 minutes or 16 hours at 37° C., 5% CO2, respectively. […] Five images were randomly taken from each sample and quantification of images was performed using the Image J software (NIH).

For cGRGDdvc [LXW7], the “EGFR mRNA level” value [1] was “increases in VEGFR2 and EGFR mRNA levels were found to be dependent on treatment time”, the “attachment of HCAECs to beads displaying LXW7” value ([2]; 10 minutes, 30 minutes or 2 hours) was “efficiently supported attachment of EPCs/ECs from different sources; also recorded: efficiently supported EPC/EC attachment” and the “binding of HCAECs to ligand-displaying resin beads” value ([2]; 2 hours incubation) was “bound both HECFCs and HCAECs”. For the same substance, the “binding affinity with platelets by flow cytometry” value [3] was “very low binding affinity with platelets” and the “THP-1 monocyte attachment on ligand treated surface” value [4] was “did not support THP-1 monocyte attachment”.

From patent publication US11246961B2, “Engineered scaffolds for vascularized tissue repair” (The Regents of the University of California, priority 2016, dated 2022)
